According to ChEMBL document CHEMBL1201862, “PubChem BioAssay data set” (2004):
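Method: 48-hour compound exposure of cells in 96-well plates, five concentrations, linear interpolation of endpoints. Abbreviation: GI50, concentration required for 50% inhibition of growth.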 The source made the active and inactive calls. Cut-off read from the data, not from the text of the source: active = GI50 up to about 1.1 µM and inactive = higher.

Legend:
Assay in all cases: NCI tumour cell line growth inhibition, 48 h
MDA-MB-231 = system: MDA-MB-231
HT-29 = system: HT-29
SF-268 = system: SF-268
786-0 = system: 786-0
HCT-15 = system: HCT-15
RPMI-8226 = system: RPMI-8226
CAKI-1 = system: CAKI-1
HCC 2998 = system: HCC 2998
DU-145 = system: DU-145
SF-295 = system: SF-295
HL-60 = system: HL-60
CCRF-CEM = system: CCRF-CEM
SNB-19 = system: SNB-19
K562 = system: K562
SN12C = system: SN12C
MDA-MB-435 = system: MDA-MB-435
MDA-N = system: MDA-N
LOX IMVI = system: LOX IMVI
OVCAR-3 = system: OVCAR-3
NCI/ADR-RES = system: NCI/ADR-RES

SMILES | GI50 (MDA-MB-231) | GI50 (HT-29) | GI50 (SF-268) | GI50 (786-0) | GI50 (HCT-15) [µM] | GI50 (RPMI-8226) | GI50 (CAKI-1) | GI50 (HCC 2998) | GI50 (DU-145) | GI50 (SF-295) | GI50 (HL-60) | GI50 (CCRF-CEM) | GI50 (SNB-19) | GI50 (K562) | GI50 (SN12C) | GI50 (MDA-MB-435) | GI50 (MDA-N) | GI50 (LOX IMVI) | GI50 (OVCAR-3) | GI50 (NCI/ADR-RES)
O=C1C(=Cc2ccccc2O)N=C(c2ccccc2)N1n1c(-c2ccccc2)nc2ccccc2c1=O | 42.2 µM (inactive) | 37.2 µM (inactive) | 21.3 µM (inactive) | 42.1 µM (inactive) | 40.4 | 38.6 µM (inactive) | 25.8 µM (inactive) | 30.7 µM (inactive) | 35.5 µM (inactive) | 22.8 µM (inactive) | 15.2 µM (inactive) | 28.4 µM (inactive) | 48 µM (inactive) | 29.6 µM (inactive) | 43 µM (inactive) | 36.8 µM (inactive) | 32.4 µM (inactive) | 41.7 µM (inactive) | – | –
CCOC(=O)CC(NCc1ccc(/N=C/c2nc3ccc(C(F)(F)F)cc3nc2-c2ccccc2)cc1)C(=O)OCC (stereo unspecified) | – | > 100 µM (inactive) | > 100 µM (inactive) | 15.3 µM (inactive) | > 100 | > 100 µM (inactive) | > 100 µM (inactive) | 27 µM (inactive) | – | 27.2 µM (inactive) | > 100 µM (inactive) | > 100 µM (inactive) | 27.9 µM (inactive) | > 100 µM (inactive) | > 100 µM (inactive) | – | – | > 100 µM (inactive) | > 100 µM (inactive) | –
CC(C)C(NCc1c2ccccc2[n+]([O-])c2ccccc12)C(=O)O (stereo unspecified) | – | 20 µM (inactive) | 32.2 µM (inactive) | 54.7 µM (inactive) | 31 | 28.2 µM (inactive) | > 100 µM (inactive) | > 100 µM (inactive) | – | > 100 µM (inactive) | 30.3 µM (inactive) | 35.3 µM (inactive) | 53.3 µM (inactive) | 32.1 µM (inactive) | 44.8 µM (inactive) | – | – | 33.8 µM (inactive) | 93.1 µM (inactive) | –
C[N+](C)(C)CC(=O)N/N=C(\C(=O)NC1=C(Cl)C(=O)c2ccccc2C1=O)C(C#N)c1csc(-c2ccc([N+](=O)[O-])cc2)n1 (stereo unspecified) | – | > 100 µM (inactive) | > 100 µM (inactive) | > 100 µM (inactive) | > 100 | > 100 µM (inactive) | > 100 µM (inactive) | > 100 µM (inactive) | – | > 100 µM (inactive) | > 100 µM (inactive) | > 100 µM (inactive) | > 100 µM (inactive) | > 100 µM (inactive) | > 100 µM (inactive) | – | – | > 100 µM (inactive) | > 100 µM (inactive) | –
COC1(OC)C=CC2C1C1C=CC2C1(OC)OC (stereo unspecified) | > 100 µM (inactive) | > 100 µM (inactive) | > 100 µM (inactive) | > 100 µM (inactive) | > 100 | > 100 µM (inactive) | > 100 µM (inactive) | > 100 µM (inactive) | > 100 µM (inactive) | > 100 µM (inactive) | – | > 100 µM (inactive) | > 100 µM (inactive) | > 100 µM (inactive) | > 100 µM (inactive) | > 100 µM (inactive) | – | > 100 µM (inactive) | > 100 µM (inactive) | > 100 µM (inactive)
CC(=O)OC1C(=O)C(O)C(C)OC1O[C@@H]1C[C@@]2(C)[C@@H]3CC=C4[C@@H](C[C@H](O)C(=O)C4(C)C)[C@]3(C)C(=O)C[C@]2(C)[C@H]1[C@@](C)(O)C(=O)/C=C/C(C)(C)O (stereo partly specified) | – | 1.35 µM (inactive) | 0.843 µM (active) | 1.53 µM (inactive) | 1.08 | 0.44 µM (active) | 1.36 µM (inactive) | 2.27 µM (inactive) | – | 3.03 µM (inactive) | 1.91 µM (inactive) | 0.662 µM (active) | 1.62 µM (inactive) | 3.35 µM (inactive) | 2.61 µM (inactive) | – | – | 0.706 µM (active) | 1.7 µM (inactive) | –
N/C(=N\c1ccc(Cl)cc1)NS(=O)(=O)c1ccc(S(=O)(=O)c2ccccc2)s1 | 12.9 µM (inactive) | 21.7 µM (inactive) | 19.4 µM (inactive) | 19.9 µM (inactive) | 17.5 | 16.6 µM (inactive) | – | – | 21.5 µM (inactive) | 15.1 µM (inactive) | 22.3 µM (inactive) | – | 33.8 µM (inactive) | 18.8 µM (inactive) | 17.5 µM (inactive) | – | 18.5 µM (inactive) | 16.3 µM (inactive) | 25.4 µM (inactive) | 18 µM (inactive)
O=C(NC(Cc1c[nH]c2ccccc12)C(=O)Nc1ccc(Br)cc1)OCc1ccccc1 (stereo unspecified) | 10.2 µM (inactive) | 6.19 µM (inactive) | 12.7 µM (inactive) | 10.8 µM (inactive) | 11.1 | 6.38 µM (inactive) | 5.27 µM (inactive) | 11 µM (inactive) | 13.3 µM (inactive) | 9.23 µM (inactive) | 3.97 µM (inactive) | 3.6 µM (inactive) | 21.1 µM (inactive) | 6.82 µM (inactive) | 9.46 µM (inactive) | 8.83 µM (inactive) | – | 9.06 µM (inactive) | 11.6 µM (inactive) | 12.1 µM (inactive)
